Calls of active or inactive are those of the source. The rule behind the calls is not given here. A value given as a limit tells only on which side of the number the result lay.

The source of these data is ChEMBL document CHEMBL5316318, “Structural Modification and Pharmacological Evaluation of Substituted Quinoline-5,8-diones as Potent NSD2 Inhibitors” (J Med Chem, 2023).

For series [1], the target named is T1, Histone-lysine N-methyltransferase NSD2 (Homo sapiens, UniProt O96028).
T1 sequence (O96028 whole entry): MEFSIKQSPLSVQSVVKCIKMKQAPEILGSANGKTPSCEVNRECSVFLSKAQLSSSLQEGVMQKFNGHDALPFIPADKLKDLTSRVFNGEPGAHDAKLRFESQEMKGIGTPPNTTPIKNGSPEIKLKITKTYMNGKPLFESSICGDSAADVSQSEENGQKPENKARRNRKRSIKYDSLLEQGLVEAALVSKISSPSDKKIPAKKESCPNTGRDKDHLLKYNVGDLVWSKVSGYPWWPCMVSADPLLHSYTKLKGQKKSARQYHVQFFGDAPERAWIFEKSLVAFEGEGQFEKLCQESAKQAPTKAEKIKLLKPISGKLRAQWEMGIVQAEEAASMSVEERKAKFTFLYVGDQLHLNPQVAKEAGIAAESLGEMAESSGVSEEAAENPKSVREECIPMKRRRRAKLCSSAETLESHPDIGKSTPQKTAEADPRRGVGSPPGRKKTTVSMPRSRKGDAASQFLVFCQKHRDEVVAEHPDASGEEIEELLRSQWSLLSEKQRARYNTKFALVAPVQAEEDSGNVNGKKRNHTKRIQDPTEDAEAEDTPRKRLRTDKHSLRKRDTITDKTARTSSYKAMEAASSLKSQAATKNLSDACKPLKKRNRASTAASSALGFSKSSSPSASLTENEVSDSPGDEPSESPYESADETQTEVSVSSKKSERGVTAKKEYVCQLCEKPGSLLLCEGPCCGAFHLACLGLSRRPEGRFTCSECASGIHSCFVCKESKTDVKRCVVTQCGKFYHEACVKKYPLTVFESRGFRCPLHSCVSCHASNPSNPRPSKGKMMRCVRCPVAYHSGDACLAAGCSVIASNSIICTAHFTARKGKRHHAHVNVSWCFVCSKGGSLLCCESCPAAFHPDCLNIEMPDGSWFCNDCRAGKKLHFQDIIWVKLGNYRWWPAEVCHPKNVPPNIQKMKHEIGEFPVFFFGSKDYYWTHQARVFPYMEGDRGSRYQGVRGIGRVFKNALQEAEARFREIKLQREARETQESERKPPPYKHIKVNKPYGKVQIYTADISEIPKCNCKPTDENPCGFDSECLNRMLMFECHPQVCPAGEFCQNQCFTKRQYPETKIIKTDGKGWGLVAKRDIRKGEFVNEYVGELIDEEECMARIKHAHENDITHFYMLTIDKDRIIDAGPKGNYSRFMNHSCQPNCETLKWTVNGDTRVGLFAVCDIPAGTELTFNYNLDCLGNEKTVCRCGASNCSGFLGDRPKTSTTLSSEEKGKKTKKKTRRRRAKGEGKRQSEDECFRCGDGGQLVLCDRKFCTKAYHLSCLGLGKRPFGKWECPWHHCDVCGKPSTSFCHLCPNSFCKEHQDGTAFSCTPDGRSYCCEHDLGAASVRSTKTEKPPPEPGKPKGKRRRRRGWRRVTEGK
In words: Inhibition of recombinant human NSD2 (941 to 1240 residues) using SAM as substrate incubated for 3 hrs by AlphaLISA assay. On the technique in general: Alpha assays give light when donor and acceptor beads are brought close together.

A short description of series [2]: AUClast in ICR mouse at 1 mg/kg, iv measured for 24 hrs by LC-MS/MS analysis. Format: ADME, organism-based. Details: dose 1 mg/kg, time 24 hrs, route iv. The settings on record: in vivo.
In series [3] the target is Histone-lysine N-methyltransferase NSD3 (Homo sapiens, UniProt Q9BZ95). In words: Inhibition of NSD3 (unknown origin).
The target in series [4] is Histone-lysine N-methyltransferase 2A (Homo sapiens, UniProt Q03164). In words: Inhibition of MLL1 (unknown origin) using SAM as substrate preincubated for 10 mins followed by substrate addition and measured after 4 hrs by HTRF analysis. A general note: Time-resolved FRET reads energy transfer from a long-lived donor to a nearby acceptor.
Histone-lysine N-methyltransferase 2A, sequence (Q03164 1-2718 limits assumed): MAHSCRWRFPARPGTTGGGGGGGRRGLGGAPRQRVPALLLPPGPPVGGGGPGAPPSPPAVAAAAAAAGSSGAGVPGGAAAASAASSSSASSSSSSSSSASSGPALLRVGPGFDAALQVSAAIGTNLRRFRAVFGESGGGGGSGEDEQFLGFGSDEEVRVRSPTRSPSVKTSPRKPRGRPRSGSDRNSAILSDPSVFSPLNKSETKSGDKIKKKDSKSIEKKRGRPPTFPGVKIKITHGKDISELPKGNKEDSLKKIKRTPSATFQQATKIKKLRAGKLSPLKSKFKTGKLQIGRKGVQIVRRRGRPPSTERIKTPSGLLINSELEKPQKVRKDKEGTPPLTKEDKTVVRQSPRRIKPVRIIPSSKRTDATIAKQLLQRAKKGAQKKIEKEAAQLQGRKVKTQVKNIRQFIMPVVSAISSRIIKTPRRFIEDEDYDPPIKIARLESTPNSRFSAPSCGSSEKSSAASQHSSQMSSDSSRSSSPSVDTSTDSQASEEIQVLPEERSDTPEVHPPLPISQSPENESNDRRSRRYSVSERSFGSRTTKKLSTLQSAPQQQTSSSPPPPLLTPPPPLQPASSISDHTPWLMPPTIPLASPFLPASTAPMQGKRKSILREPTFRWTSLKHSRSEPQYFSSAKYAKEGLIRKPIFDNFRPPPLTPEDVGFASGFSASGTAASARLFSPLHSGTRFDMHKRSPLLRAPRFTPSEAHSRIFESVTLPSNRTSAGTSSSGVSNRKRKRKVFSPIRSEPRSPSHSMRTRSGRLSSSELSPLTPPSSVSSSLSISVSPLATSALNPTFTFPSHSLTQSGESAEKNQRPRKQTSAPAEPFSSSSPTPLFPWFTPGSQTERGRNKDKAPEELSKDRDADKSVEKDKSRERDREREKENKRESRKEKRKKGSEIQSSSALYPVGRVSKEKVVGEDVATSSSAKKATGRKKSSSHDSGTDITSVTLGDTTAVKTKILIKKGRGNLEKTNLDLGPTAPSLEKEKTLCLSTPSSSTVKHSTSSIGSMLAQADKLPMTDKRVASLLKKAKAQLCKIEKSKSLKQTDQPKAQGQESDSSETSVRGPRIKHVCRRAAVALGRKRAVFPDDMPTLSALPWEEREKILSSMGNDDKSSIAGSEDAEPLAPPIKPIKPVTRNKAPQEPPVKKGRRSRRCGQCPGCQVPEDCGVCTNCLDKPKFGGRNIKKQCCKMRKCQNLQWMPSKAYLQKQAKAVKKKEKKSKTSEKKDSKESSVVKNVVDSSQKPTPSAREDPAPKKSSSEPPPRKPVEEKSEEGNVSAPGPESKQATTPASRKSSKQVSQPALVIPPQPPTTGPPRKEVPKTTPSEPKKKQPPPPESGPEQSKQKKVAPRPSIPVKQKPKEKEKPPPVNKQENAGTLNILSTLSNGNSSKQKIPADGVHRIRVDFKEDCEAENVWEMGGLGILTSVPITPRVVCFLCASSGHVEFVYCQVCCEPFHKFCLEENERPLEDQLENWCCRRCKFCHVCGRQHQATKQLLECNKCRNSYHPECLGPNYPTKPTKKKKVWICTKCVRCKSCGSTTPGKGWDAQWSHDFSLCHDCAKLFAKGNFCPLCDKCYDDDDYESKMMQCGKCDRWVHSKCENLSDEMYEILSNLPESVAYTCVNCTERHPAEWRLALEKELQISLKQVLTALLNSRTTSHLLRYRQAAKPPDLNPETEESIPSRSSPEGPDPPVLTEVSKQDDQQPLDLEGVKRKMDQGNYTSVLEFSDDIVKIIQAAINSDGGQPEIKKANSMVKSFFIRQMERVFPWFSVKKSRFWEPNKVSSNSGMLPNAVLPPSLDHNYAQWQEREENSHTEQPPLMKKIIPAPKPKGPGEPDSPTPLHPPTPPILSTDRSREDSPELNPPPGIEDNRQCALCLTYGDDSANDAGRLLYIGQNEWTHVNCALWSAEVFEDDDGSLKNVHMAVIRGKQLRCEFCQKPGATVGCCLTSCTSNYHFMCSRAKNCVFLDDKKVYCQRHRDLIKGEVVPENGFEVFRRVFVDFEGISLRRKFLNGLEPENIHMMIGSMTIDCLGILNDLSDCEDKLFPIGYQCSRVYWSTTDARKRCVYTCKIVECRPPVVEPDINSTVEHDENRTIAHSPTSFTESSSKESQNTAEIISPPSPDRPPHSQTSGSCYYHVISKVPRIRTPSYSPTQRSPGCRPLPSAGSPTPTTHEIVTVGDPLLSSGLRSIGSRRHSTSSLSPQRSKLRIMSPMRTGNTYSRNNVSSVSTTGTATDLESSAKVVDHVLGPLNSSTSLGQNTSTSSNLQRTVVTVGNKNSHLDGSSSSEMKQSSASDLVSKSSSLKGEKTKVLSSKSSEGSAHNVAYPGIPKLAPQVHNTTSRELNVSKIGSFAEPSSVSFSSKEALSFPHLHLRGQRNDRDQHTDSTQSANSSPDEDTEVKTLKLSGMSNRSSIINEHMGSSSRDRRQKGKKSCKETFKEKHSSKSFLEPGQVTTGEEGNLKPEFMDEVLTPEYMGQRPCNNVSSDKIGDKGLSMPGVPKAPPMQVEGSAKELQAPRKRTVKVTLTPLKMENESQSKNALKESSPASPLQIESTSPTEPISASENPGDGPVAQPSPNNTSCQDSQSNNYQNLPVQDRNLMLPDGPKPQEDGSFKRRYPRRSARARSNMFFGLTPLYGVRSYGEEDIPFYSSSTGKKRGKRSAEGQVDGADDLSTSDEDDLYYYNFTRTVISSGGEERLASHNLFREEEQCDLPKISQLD
Histone-lysine N-methyltransferase 2A, sequence (Q03164 2719-3969 limits assumed): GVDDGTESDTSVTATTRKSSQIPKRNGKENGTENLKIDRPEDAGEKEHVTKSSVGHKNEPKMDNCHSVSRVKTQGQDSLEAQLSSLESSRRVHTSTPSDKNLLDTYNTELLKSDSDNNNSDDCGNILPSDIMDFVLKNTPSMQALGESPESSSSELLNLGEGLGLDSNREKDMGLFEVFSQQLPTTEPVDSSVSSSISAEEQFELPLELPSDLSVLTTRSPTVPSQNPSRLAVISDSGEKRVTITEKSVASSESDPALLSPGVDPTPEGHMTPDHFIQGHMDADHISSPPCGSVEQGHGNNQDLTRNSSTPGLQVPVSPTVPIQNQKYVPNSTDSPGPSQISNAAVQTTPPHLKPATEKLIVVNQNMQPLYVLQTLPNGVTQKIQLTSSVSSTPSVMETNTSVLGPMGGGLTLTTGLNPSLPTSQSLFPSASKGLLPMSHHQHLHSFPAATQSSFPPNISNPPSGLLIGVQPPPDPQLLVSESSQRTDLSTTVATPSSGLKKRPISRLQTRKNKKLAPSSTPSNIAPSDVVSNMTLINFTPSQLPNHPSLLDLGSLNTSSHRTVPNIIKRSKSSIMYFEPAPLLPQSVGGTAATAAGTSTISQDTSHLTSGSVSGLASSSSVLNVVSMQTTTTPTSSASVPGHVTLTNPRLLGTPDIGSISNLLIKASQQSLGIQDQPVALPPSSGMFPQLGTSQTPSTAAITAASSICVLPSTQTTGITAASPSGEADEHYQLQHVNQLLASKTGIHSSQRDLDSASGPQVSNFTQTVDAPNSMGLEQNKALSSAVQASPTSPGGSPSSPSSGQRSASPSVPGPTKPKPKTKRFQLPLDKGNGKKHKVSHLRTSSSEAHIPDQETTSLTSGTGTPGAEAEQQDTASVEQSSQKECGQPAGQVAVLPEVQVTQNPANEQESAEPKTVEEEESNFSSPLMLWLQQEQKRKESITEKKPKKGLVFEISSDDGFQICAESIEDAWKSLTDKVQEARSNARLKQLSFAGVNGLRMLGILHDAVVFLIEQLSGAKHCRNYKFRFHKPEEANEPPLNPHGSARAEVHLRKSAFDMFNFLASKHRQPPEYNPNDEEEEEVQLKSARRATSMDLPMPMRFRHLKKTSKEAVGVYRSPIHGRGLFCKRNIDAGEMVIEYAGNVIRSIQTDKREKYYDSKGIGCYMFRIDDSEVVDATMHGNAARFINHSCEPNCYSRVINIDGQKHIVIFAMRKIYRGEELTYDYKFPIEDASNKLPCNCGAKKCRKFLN
The target of series [5] is Histone-lysine N-methyltransferase 2D (Homo sapiens, UniProt O14686). In words: Inhibition of MLL2 (unknown origin) using SAM as substrate preincubated for 10 mins followed by substrate addition and measured after 4 hrs by HTRF analysis.
The test system of a further series is OPM-2. In words: Antiproliferative activity against NSD2 translocated human OPM-2 cells assessed as inhibition of cell growth incubated for 6 days by CCK-8 assay. The settings on record: OPM-2, 144 h. Format: functional, cell-based. For orientation: Tetrazolium assays rely on reduction of a dye to a coloured formazan, in cell work by metabolically active cells.

In the next series the test system is THP-1. In words: Antiproliferative activity against human THP-1 cells harboring wild type NSD2 assessed as inhibition of cell growth incubated for 6 days by CCK-8 assay. The settings on record: THP-1, 144 h. Format: functional, cell-based.
The test system of a further series is MOLM-13. In words: Antiproliferative activity against human MOLM-13 cells harboring wild type NSD2 assessed as inhibition of cell growth incubated for 6 days by CCK-8 assay. The settings on record: MOLM-13, 144 h. Format: functional, cell-based.
The test system of the next series is CMK. In words: Antiproliferative activity against human CMK cells harboring wild type NSD2 assessed as inhibition of cell growth incubated for 6 days by CCK-8 assay. The settings on record: 144 h. Format: functional, cell-based.
A further series has as its system U-937. In words: Antiproliferative activity against human U-937 cells harboring wild type NSD2 assessed as inhibition of cell growth incubated for 6 days by CCK-8 assay. Format: functional, cell-based. The settings on record: U-937, 144 h.
Series [6] has as its system KMS-11. In words: Modulation of Hippo signaling pathway in human KMS-11 cells at 1 uM incubated for 48 hrs by RNA-Seq analysis. Format: cell-based. The settings on record: filed as modulator.
Series [7] deals with Hepatocyte growth factor receptor (Homo sapiens) (UniProt P08581). In words: Inhibition of MET transcriptional activation in human KMS-11 cells assessed as reduction in MET mRNA expression at 0.5 uM by qRT-PCR analysis. Format: cell-based.
The target in series [8] is Basement membrane-specific heparan sulfate proteoglycan core protein (Homo sapiens) (UniProt P98160). In words: Inhibition of HSPG2 transcriptional activation in human KMS-11 cells assessed as reduction in H3K36me2 level in promoter region by ChIP-qPCR analysis. Format: cell-based.
Series [9] has as its system KMS-11. In words: Induction of apoptosis in human KMS-11 cells assessed as late apoptotic cells at 0.5 uM incubated for 72 hrs by Annexin V-FITC/PI staining based flow cytometry analysis (reference value: 6.47%). Format: functional.
Series [10] deals with KMS-11. In words: Induction of apoptosis in human KMS-11 cells assessed as early apoptotic cells at 0.8 uM incubated for 72 hrs by Annexin V-FITC/PI staining based flow cytometry analysis (reference value: 3.96%). Format: functional.
The subject of series [11] is KMS-11. In words: Induction of apoptosis in human KMS-11 cells assessed as dead cells at 0.8 uM incubated for 72 hrs by Annexin V-FITC/PI staining based flow cytometry analysis (reference value: 6.48%). Format: functional.
Series [12] concerns KMS-11. In words: Induction of apoptosis in human KMS-11 cells assessed as upregulation of BIM protein expression at 0.2 to 0.8 uM by Western blot analysis. Format: functional, cell-based. The settings on record: dose 0.2-0.8 µM.
Series [13] concerns KMS-11. In words: Antitumor activity against human KMS-11 cells xenografted in SCID mouse assessed as tumor growth inhibition at 75 mg/kg, po administered daily for 21 days and measured every 3 days relative to control. Format: functional. The settings on record: KMS-11, 504 h, time 21 day, read-out: TGI.
Series [14] in a line: Toxicity in SCID mouse xenografted with human KMS-11 cells assessed as adverse effects at 75 to 150 mg/kg, po administered daily for 21 days and measured every 3 days. Format: organism-based. The settings on record: in vivo, 504 h, dose 75-150 mg/kg, time 21 day.

In general, IC50 refers to the concentration at which inhibition is half-maximal. A word on the AUC(0-t): it is exposure summed from dosing to a finite time, without extrapolation to infinity. Lower therefore signals less exposure. With `CC#CC(=O)NC12CC(NC3=C(Cl)C(=O)c4ncccc4C3=O)(C1)C2`, the IC50 in series [1] was 230 nM; in [3] it was 750 nM; in series [4], over 10000 nM; in series [5] it was over 10000 nM; in the series with OPM-2 it was 2090 nM; in the series on THP-1 it was 2640 nM. For the same molecule, the IC50 turned out to be 3170 nM in the series on MOLM-13, 2600 nM with CMK and 4900 nM in the series on U-937. For the same molecule, in [2], the AUC(0-t) at 24 h was determined as 5180 ng·h/mL. The outcome with KMS-11 [6] and in the series on KMS-11 [12] was Active. Besides, the inhibition result in [7] and in [8] was “Active” each time. Moreover, the Activity in the series with KMS-11 [9] is 15.7%; in the series with KMS-11 [10], 19.3%; in the series with KMS-11 [11], 5.98%; in series [14], “Non-Toxic”. The inhibition in vivo at 75 mg/kg with KMS-11 [13] was found to be 56%.
